Measurements as given in PMC6908736, “Toxic Tau Oligomers Modulated by Novel Curcumin Derivatives” (Scientific Reports, 2019).
Read-outs that look alike come from different tables or passages of the source.

Assays:
[1] = tested on: human neuroblastoma SH-SY5Y cell line; assay: MTS cytotoxicity of curcumin derivatives (dose-response); type: cell-based; design: LogIC50 (cell viability): unit not given here; conditions: for IC50: Homo sapiens; for LogIC50 (cell viability): n = 3
Source text: Six compounds were selected due to their higher activity in modulating toxic TauO and subjected to additional in vitro testing to validate their effects on TauO (Fig. 2B). […] Compounds CL3,8 were obtained through a double aldol condensation on the diacetyl of the appropriate aromatic aldehyde 1[58]. Similarly, HemiC9 was obtained by means of Claisen-Schmidt Aldol condensation of acetone under basic conditions (Fig. 2C)[59]. Heterocyclic derivative CH8 was obtained in a two-step procedure from the corresponding cinnamic acid derivative 2 (Fig. 2D)[60]. […] This method allows the obtainment of target products avoiding the use of protecting groups. One of the criteria used to select these small molecules was evaluating their toxicity profile. The cytotoxicity of each curcumin derivative was examined by exposing the cultured human neuroblastoma SH-SY5Y cell line to a continuous range of small molecule concentrations (0–800 μM) and monitoring cell survival after 24 hours of treatment by an MTS assay. […] Human neuroblastoma SH-SY5Y cells (ATCC CRL-2266) were maintained in DMEM and grown to confluence in 96-well plates as previously described. […] The dose-response curve was used to calculate the concentration of the compound required for 50% inhibition of cell viability (IC50). Cell viability was corrected by the vehicle background. All measurements were performed in triplicate. The cytotoxic effect was determined using MTS assay (G3582, Promega) for assessing cell viability following the manufacturers’ instructions. Optical density (OD) was measured at 490 nm with POLARstar OMEGA plate reader (BMG Labtechnologies). Cell viability was calculated as the percentage of the OD value of treated cells compared to untreated controls, according to the following equation: Viability = (OD SAMPLE/OD CONTROL) × 100%.

[2] = target: T1, preformed recombinant tau oligomers (TauO) (Homo sapiens, UniProt P10636); assay: Western blot of tau oligomers with and without compounds; type: biochemical; conditions: curcumin 1:5 and 1:10 molar ratio
T1 construct: made in house
Protocol: The tau pellet was treated with 8 M urea followed by overnight dialysis against 1X phosphate-buffered saline (PBS) pH 7.4. Tau concentration was measured using bicinchoninic acid protein assay (Pierce BCA Protein Assay Kit, 23225, Thermo Fisher Scientific) and normalized to 1 mg/mL by adding 1X PBS. Aliquots of tau monomer in PBS were stored at -20 °C. Each 300 µL of tau stock (0.3 mg) was added to 700 µL of 1X PBS and incubated for 1 hour on an orbital shaker at room temperature. After shaking, the resulting tau oligomers were purified by fast protein liquid chromatography (FPLC, Superdex 200 Increase 10/300 column, Amersham Biosciences).
(§1) A volume of 100 μL of tau oligomers (1 µg/μL) was incubated with curcumin (1:5 and 1:10 molar ratio) and curcumin derivatives (1:5 molar ratio). Compounds were dissolved in EtOH 75%/DMSO (5:1) at a final concentration of 5 mM and diluted in 1X PBS or ddH2O for incubation or toxicity assay (final concentration 5 μM). Tau oligomers in the presence of the small molecules and controls were incubated on an orbital shaker, without stirring, for 16 hours under oligomerization conditions as previously described.
An amount of 3 µg of each sample were resolved on a pre-cast NuPAGE 4–12% Bis-Tris Gels for SDS-PAGE (NP0335BOX, Invitrogen) and transferred to nitrocellulose membranes. […]

[3] = target: T1, preformed recombinant tau oligomers (TauO); assay: Direct ELISA, dot blot and filter trap of tau oligomers (T22, TOMA1, Tau 5); type: biochemical; conditions: curcumin 1:5 and 1:10 molar ratio, vs untreated TauO
Protocol: as §1
Dot blot assay to detect tau oligomers in the absence or presence of small molecules was performed as previously described. Briefly, 1.5 μl of each end-product reaction was applied onto nitrocellulose membranes and then blocked with 10% nonfat milk in TBS-T overnight at 4 °C. The next day, membranes were probed with the oligomer-specific tau antibodies, T22 (1:250), TOMA1(1:200) and total tau antibody, Tau 5, (1:10000) diluted in 5% nonfat milk for 1 hour at RT. […]
ELISA assay was conducted as previously described. […] Plates were washed three times with TBS-T and developed with 3,3,5,5-tetramethylbenzidine (TMB + Substrate- Chromogen, S1599, Dako) The reaction was stopped using 100 μL of 1 M HCl and absorbance was read at 450 nm using POLARstar OMEGA plate reader. […]

[4] = tested on: SH-SY5Y cells exposed to TauO; assay: MTS assay of TauO-induced toxicity in SH-SY5Y; type: cell-based, human; conditions: 2 µM TauO, curcumin final concentration 10 μM, 24 hours
Protocol: Human neuroblastoma SH-SY5Y cells (ATCC CRL-2266) were maintained in DMEM and grown to confluence in 96-well plates as previously described. […] The dose-response curve was used to calculate the concentration of the compound required for 50% inhibition of cell viability (IC50).
Cell viability was corrected by the vehicle background. All measurements were performed in triplicate. The cytotoxic effect was determined using MTS assay (G3582, Promega) for assessing cell viability following the manufacturers’ instructions. Optical density (OD) was measured at 490 nm with POLARstar OMEGA plate reader (BMG Labtechnologies). Cell viability was calculated as the percentage of the OD value of treated cells compared to untreated controls, according to the following equation: Viability = (OD SAMPLE/OD CONTROL) × 100%.

[5] = MTS, 0–800 μM, 24 hours, n = 3, read-out: IC50 (cell viability)

T1 sequence (P10636 1-441 isoform P10636-8): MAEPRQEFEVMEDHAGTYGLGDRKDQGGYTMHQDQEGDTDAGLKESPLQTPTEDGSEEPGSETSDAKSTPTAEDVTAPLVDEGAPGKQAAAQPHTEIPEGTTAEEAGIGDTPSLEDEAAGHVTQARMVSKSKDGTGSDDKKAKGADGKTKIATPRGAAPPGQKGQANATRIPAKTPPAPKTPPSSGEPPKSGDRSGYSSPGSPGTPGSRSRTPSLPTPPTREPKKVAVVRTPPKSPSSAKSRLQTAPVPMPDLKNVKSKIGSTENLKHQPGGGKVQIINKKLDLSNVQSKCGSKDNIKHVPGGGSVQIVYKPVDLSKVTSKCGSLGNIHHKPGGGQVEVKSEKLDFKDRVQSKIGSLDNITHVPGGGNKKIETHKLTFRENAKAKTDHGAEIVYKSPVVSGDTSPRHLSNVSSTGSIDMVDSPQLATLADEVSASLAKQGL

Structure (SMILES)	IC50 [1, 5] [µM]	LogIC50 (cell viability) ([1]; MTS, 0–800 μM, 24 hours)	other results
CN(C)c1ccc(/C=C/c2nnc(/C=C/c3ccc(N(C)C)cc3)o2)cc1 [CH8]	110	2.042	
O=C(/C=C/c1ccc(F)cc1)C(=O)/C=C/c1ccc(F)cc1 [CL3]	56.1	1.749	
O=C(/C=C/c1ccccc1Cl)C(=O)/C=C/c1ccccc1Cl [CL8]	54.5	1.737	
O=C(/C=C/c1ccc(Cl)cc1)COC(=O)/C=C/c1ccc(Cl)cc1 [Cal7]		2.281	IC50 ([1]; 24 h, read-out: IC50 (cell viability)): 191 µM
CC(=O)/C=C/c1ccc(C)cc1 [HemiC9]	124		
COc1cc(/C=C/C(=O)CC(=O)/C=C/c2ccc(O)c(OC)c2)ccc1O [curcumin]			aggregation state of TauO by Western blot (T22, Tau 5, Tau 13) [2]: promoting the formation of higher molecular weight tau aggregates; oligomer level, T22 immunoreactivity (direct ELISA and dot blot) [3]: significant decrease in oligomers; cell viability after TauO in the presence of compound [4]: rescued cells from TauO-induced toxicity
